System: MIA PaCa-2 cells
Experiment: Bru-seq analysis for nascent RNA synthesis (log2FC of genes, GSEA gene sets)
Format: cell-based, human
Details: 4 h
[1] = gene set HALLMARK_IL2_STAT5_SIGNALING
[2] = gene set HALLMARK_IL6_JAK_STAT3_SIGNALING
[3] = gene set HALLMARK_MTORC1_SIGNALING
[4] = gene set HALLMARK_OXIDATIVE_PHOSPHORYLATION
[5] = gene set HALLMARK_PI3K_AKT_MTOR_SIGNALING
[6] = gene set HALLMARK_TNFA_SIGNALING_VIA_NFKB
[7] = gene set HALLMARK_UNFOLDED_PROTEIN_RESPONSE
[8] = gene set HALLMARK_UV_RESPONSE_UP
[9] = gene set HALLMARK_XENOBIOTIC_METABOLISM
[10] = gene set HELLER_SILENCED_BY_METHYLATION_DN
[11] = gene set KAN_RESPONSE_TO_ARSENIC_TRIOXIDE
[12] = gene set KEGG_ACUTE_MYELOID_LEUKEMIA
[13] = gene set KEGG_ADIPOCYTOKINE_SIGNALING_PATHWAY
[14] = gene set KEGG_ALDOSTERONE_REGULATED_SODIUM_REABSORPTION
[15] = gene set KEGG_ANTIGEN_PROCESSING_AND_PRESENTATION
[16] = gene set KEGG_CITRATE_CYCLE_TCA_CYCLE
[17] = gene set KEGG_ENDOMETRIAL_CANCER
[18] = gene set KEGG_FATTY_ACID_METABOLISM
[19] = gene set KEGG_FRUCTOSE_AND_MANNOSE_METABOLISM
[20] = gene set KEGG_GLYCEROLIPID_METABOLISM
[21] = gene set KEGG_GLYCOLYSIS_GLUCONEOGENESIS
[22] = gene set KEGG_INSULIN_SIGNALING_PATHWAY
[23] = gene set KEGG_MAPK_SIGNALING_PATHWAY
[24] = gene set KEGG_MTOR_SIGNALING_PATHWAY
[25] = gene set KEGG_OXIDATIVE_PHOSPHORYLATION
[26] = gene set KEGG_PARKINSONS_DISEASE
[27] = gene set KEGG_PORPHYRIN_AND_CHLOROPHYLL_METABOLISM
[28] = gene set KEGG_PPAR_SIGNALING_PATHWAY
[29] = gene set KEGG_PYRUVATE_METABOLISM
[30] = gene set KEGG_SNARE_INTERACTIONS_IN_VESICULAR_TRANSPORT
[31] = gene set KEGG_SYSTEMIC_LUPUS_ERYTHEMATOSUS
[32] = gene set KEGG_VALINE_LEUCINE_AND_ISOLEUCINE_DEGRADATION
[33] = gene set PODAR_RESPONSE_TO_ADAPHOSTIN_UP
[34] = gene set REACTOME_CHOLESTEROL_BIOSYNTHESIS
[35] = gene set REACTOME_RNA_POL_I_PROMOTER_OPENING
[36] = gene set REACTOME_UNFOLDED_PROTEIN_RESPONSE
[37] = gene set SCHMIDT_POR_TARGETS_IN_LIMB_BUD_UP
[38] = gene set WILCOX_RESPONSE_TO_PROGESTERONE_UP
[39] = gene set ZHANG_TLX_TARGETS_36HR_UP
[40] = top downregulated genes, MIA PaCa-2 cells

CCN(CC)CCCC(C)Nc1cnc(C(=O)Nc2cc(C)cc3cccnc23)cn1 (stereo not shown) [J4, 5-((5-(diethylamino)pentan-2-yl)amino)-N-(6-methylquinolin-8-yl)pyrazine-2-carboxamide]
ES [1]: 0.424 | NES [1]: 1.597 | ES [2]: 0.443 | NES [2]: 1.405 | ES [3]: 0.626 | NES [3]: 2.450 | ES (gene set HALLMARK_MYOGENESIS): 0.541 | NES (gene set HALLMARK_MYOGENESIS): 1.885 | ES [4]: 0.403 | NES [4]: 1.601 | ES (gene set HALLMARK_P53_PATHWAY): 0.565 | NES (gene set HALLMARK_P53_PATHWAY): 2.171 | ES (gene set HALLMARK_PEROXISOME): 0.457 | NES (gene set HALLMARK_PEROXISOME): 1.612 | ES [5]: 0.566 | NES [5]: 2.033 | ES [6]: 0.536 | NES [6]: 2.043 | ES [7]: 0.582 | NES [7]: 2.173 | ES [8]: 0.478 | NES [8]: 1.769 | ES [9]: 0.409 | NES [9]: 1.503 | ES [10]: 0.714 | NES [10]: 2.396 | ES (gene set HORTON_SREBF_TARGETS): 0.911 | NES (gene set HORTON_SREBF_TARGETS): 2.446 | ES [11]: 0.655 | NES [11]: 2.270 | ES [12]: 0.524 | NES [12]: 1.701 | ES [13]: 0.547 | NES [13]: 1.770 | ES [14]: 0.556 | NES [14]: 1.480 | ES [15]: 0.536 | NES [15]: 1.506 | ES [16]: 0.561 | NES [16]: 1.683 | ES [17]: 0.482 | NES [17]: 1.543 | ES [18]: 0.507 | NES [18]: 1.505 | ES [19]: 0.547 | NES [19]: 1.529 | ES [20]: 0.573 | NES [20]: 1.640 | ES [21]: 0.578 | NES [21]: 1.735 | ES [22]: 0.455 | NES [22]: 1.663 | ES (gene set KEGG_LYSOSOME): 0.611 | NES (gene set KEGG_LYSOSOME): 2.224 | ES [23]: 0.393 | NES [23]: 1.504 | ES (gene set KEGG_MELANOGENESIS): 0.526 | NES (gene set KEGG_MELANOGENESIS): 1.713 | ES [24]: 0.530 | NES [24]: 1.631 | ES [25]: 0.464 | NES [25]: 1.705 | ES [26]: 0.424 | NES [26]: 1.536 | ES [27]: 0.613 | NES [27]: 1.657 | ES [28]: 0.583 | NES [28]: 1.733 | ES (gene set KEGG_PROSTATE_CANCER): 0.445 | NES (gene set KEGG_PROSTATE_CANCER): 1.564 | ES [29]: 0.525 | NES [29]: 1.529 | ES [30]: 0.535 | NES [30]: 1.642 | ES [31]: 0.689 | NES [31]: 2.185 | ES [32]: 0.491 | NES [32]: 1.536 | ES (gene set LEONARD_HYPDXIA): 0.811 | NES (gene set LEONARD_HYPDXIA): 2.480 | ES (gene set LE_EGR2_TARGETS_DN): 0.689 | NES (gene set LE_EGR2_TARGETS_DN): 2.287 | ES [33]: 0.678 | NES [33]: 2.520 | ES (gene set QI_HYPDXIA): 0.624 | NES (gene set QI_HYPDXIA): 2.258 | ES (gene set REACTOME_AMYLO1DS): 0.753 | NES (gene set REACTOME_AMYLO1DS): 2.309 | ES [34]: 0.913 | NES [34]: 2.477 | ES [35]: 0.820 | NES [35]: 2.377 | ES [36]: 0.651 | NES [36]: 2.246 | ES [37]: 0.921 | NES [37]: 2.469 | ES [38]: 0.642 | NES [38]: 2.380 | ES [39]: 0.615 | NES [39]: 2.339 | ES (gene set ZHANG_TLX_TARGETS_UP): 0.710 | NES (gene set ZHANG_TLX_TARGETS_UP): 2.353 | log2FC ABCA1 [40]: −1.14 | log2FC AGAP6 [40]: −0.85 | log2FC AKAP5 [40]: −0.77 | log2FC CACNG8 [40]: −0.75 | log2FC CCND1 [40]: −0.67 | log2FC FERMT1 [40]: −0.91 | log2FC GPR75-ASB3 [40]: −0.89 | log2FC GPR135 [40]: −1.30 | log2FC HRH4 [40]: −1.09 | log2FC MX2 [40]: −0.78 | log2FC NEXN [40]: −0.76 | log2FC NOG [40]: −0.93 | log2FC NOXRED1 [40]: −0.73 | log2FC NPIPB11 [40]: −0.67 | log2FC NPR2 [40]: −1.08 | log2FC NTSR1 [40]: −0.89 | log2FC PTCH2 [40]: −0.72 | log2FC RFLNB [40]: −0.79 | log2FC SPDYA [40]: −1.18 | log2FC SYCE2 [40]: −0.98 | log2FC TAS2R20 [40]: −0.81 | log2FC TNS4 [40]: −1.05 | log2FC TSPAN4 [40]: −0.68 | log2FC TXNRD3NB [40]: −0.72 | log2FC ZDHHC11 [40]: −0.86

— US20220081412A1, “QUINOLINYL-PYRAZINE-CARBOXAMIDE COMPOUNDS AND USES THEREOF” (The Regents of the University of Michigan, priority 2018, published 2022)
